According to PubChem BioAssay AID1996:
Converted amounts (≈) assume the structure as drawn.

Details: buffer; pH 7.4; 200.0 µM
`CCOc1ccc(C(=O)CCC(=O)Nc2ccc(C)cn2)cc1` showed a solubility kinetic of 5.6 µg/mL (≈ 17.9 µM). For `Cc1ccc(C(=O)NCCNC(=O)c2ccccc2)cc1`, the solubility kinetic was over 42.4 µg/mL. With `COc1ccccc1C(=O)Nc1nc2ccccc2s1` the solubility kinetic was under 0.3 µg/mL. `CN(C)C(=O)CN1c2cccc3cccc(c23)S1(=O)=O` showed a solubility kinetic of over 43.6 µg/mL. For `COc1ccc(NC(=O)NC2(C(=O)N3CCCC3)CCCCC2)cc1`, the solubility kinetic was 24 µg/mL (≈ 69.5 µM). Compound `Cl.Nc1cccc2c3c(oc12)CCCC3` has a solubility kinetic of 7.4 µg/mL. Work on `Cc1ccc(NC(=O)C2C3CCC(O3)C2C(=O)O)cc1C` (stereo not given) yielded a solubility kinetic of over 43.4 µg/mL. Work on `Cc1cc(C(=O)CCC(=O)Nc2ncccc2O)c(C)s1` yielded a solubility kinetic of over 45.7 µg/mL. For `CC(C)C(NC(=O)c1ccc(Cl)cc1Cl)C(=O)N1CCN(S(=O)(=O)c2ccccc2)CC1` (stereo not given), the solubility kinetic was 2 µg/mL (≈ 4.01 µM). `COc1ccc(NC(=S)NC23CN4CN(CN(C4)C2)C3)c(OC)c1` showed a solubility kinetic of over 52.4 µg/mL. In the case of `Cc1ccc(SCC(=O)OCC(=O)NCCc2ccc(S(N)(=O)=O)cc2)c(C)c1`, the solubility kinetic is reported as 51.3 µg/mL (≈ 118 µM). Work on `COc1ccccc1Nc1ccc2nonc2c1[N+](=O)[O-]` yielded a solubility kinetic of 2 µg/mL (≈ 6.99 µM). Work on `COc1ccc(NC(=O)N2CCCC2C(=O)NC2CCCC2)cc1` (stereo not given) yielded a solubility kinetic of over 49.7 µg/mL. `CCOC(=O)C1=C(Nc2ccc(Cl)cc2)OCC1=O` showed a solubility kinetic of over 42.3 µg/mL. In the case of `N#C/C(=C\c1cc([N+](=O)[O-])ccc1Cl)C(N)=O`, the solubility kinetic is reported as 33.5 µg/mL (≈ 133 µM). Work on `CCCNC(=O)N1CCCC(C(N)=O)C1` (stereo not given) yielded a solubility kinetic of over 32 µg/mL. `Cc1c(Cl)cccc1NC(=O)CCC(=O)c1cccs1` showed a solubility kinetic of 11.9 µg/mL (≈ 38.7 µM). Work on `Cc1cccc(NCc2ccccc2)c1` yielded a solubility kinetic of 0.8 µg/mL (≈ 4.06 µM). In the case of `CCc1cccc(NS(=O)(=O)c2c(C)[nH]c(=O)[nH]c2=O)c1`, the solubility kinetic is reported as over 46.4 µg/mL. For `CC1=C/C(=C\C=C(C#N)C#N)N(C)c2ccccc21`, the solubility kinetic was 0.8 µg/mL (≈ 3.23 µM). Compound `CC1CCN(CC#CCOc2ccc(Cl)cc2)CC1.O=C(O)C(=O)O` has a solubility kinetic of 16.3 µg/mL. `COc1ccc(NC(=O)CS(=O)c2cccc(Cl)c2)cc1` (stereo not given) gave a solubility kinetic of over 48.6 µg/mL. For `CCN(Cc1ccccc1)C(=O)CN1C(=O)c2ccccc2C1=O`, the solubility kinetic was over 48.4 µg/mL. In the case of `O=C(O)CC(C(=O)Nc1ccc(F)cc1)C1CCCO1` (stereo not given), the solubility kinetic is reported as over 42.2 µg/mL. With `CCOc1ccc(/C=C2\SC(=O)N(c3ccc(O)cc3)C2=O)cc1OC` the solubility kinetic was under 0.8 µg/mL. `O=C(O)c1cccc(N2C(=O)c3cccc4cccc(c34)C2=O)c1` showed a solubility kinetic of over 47.6 µg/mL. In the case of `CC1CCCC(C)N1C(=O)COC(=O)c1cc(=O)[nH]c2ccccc12` (stereo not given), the solubility kinetic is reported as over 51.4 µg/mL. With `Cc1cccc(N2CCN(C(=O)c3ccc4[nH]c(C)c(C)c4c3)CC2)c1C` the solubility kinetic was 4.2 µg/mL (≈ 11.6 µM). With `Cn1c(CCC(=O)O)nc2cc(S(=O)(=O)N3CCCC3)ccc21` the solubility kinetic was over 50.6 µg/mL. `CCN1C(=O)NC(c2ccc(Cl)cc2)C2=C1CCCC2=O` (stereo not given) showed a solubility kinetic of 44.2 µg/mL (≈ 145 µM). In the case of `O=C(O)CCc1ccc(-c2cccs2)n1CCc1ccccc1`, the solubility kinetic is reported as over 48.8 µg/mL. Compound `CC1SCC(=NOCc2c(Cl)cccc2Cl)CS1` (stereo not given) has a solubility kinetic of under 0.7 µg/mL. With `Cc1ccc(S(=O)(=O)NC2=NCN(C(C)C)CN2)cc1` the solubility kinetic was over 44.5 µg/mL. With `CC(=O)c1c(C)[nH]c(C(=O)OCC(=O)Nc2ccc3c(c2)OCCO3)c1C` the solubility kinetic was 3.8 µg/mL (≈ 10.2 µM). With `Cc1nc(CC(=O)c2ccc(O)c(C)c2O)cs1` the solubility kinetic was 36.7 µg/mL (≈ 139 µM). Compound `O=C(COC(=O)Cn1cnc2ccccc2c1=O)Nc1ccccc1OC(F)F` has a solubility kinetic of 15.8 µg/mL (≈ 39.2 µM). `CC1CCCCC12NC(=O)N(CC(=O)OCc1c(F)cccc1Cl)C2=O` (stereo not given) showed a solubility kinetic of 53.3 µg/mL (≈ 139 µM). With `CCN(C(=S)NCc1ccccc1)c1cccc2ccccc12` the solubility kinetic was 2.7 µg/mL (≈ 8.43 µM). With `Cc1ccc(S(=O)(=O)N2CCN(c3ncccn3)CC2)c(C)c1` the solubility kinetic was 1.8 µg/mL (≈ 5.41 µM). `CC(=O)NC(c1ccccc1)c1cc(Cl)c2cccnc2c1O` (stereo not given) showed a solubility kinetic of 0.4 µg/mL (≈ 1.22 µM). With `Cc1ccc(C2Nc3ccccc3C(=O)N2CCCN2CCOCC2)cc1` (stereo not given) the solubility kinetic was 50.3 µg/mL (≈ 138 µM). Work on `O=C(NCCc1cnc[nH]1)c1ccc(-c2ccccc2)cc1` yielded a solubility kinetic of 28.2 µg/mL (≈ 96.8 µM). `Cc1noc(C)c1C(=O)NCC1COc2ccccc2O1` (stereo not given) showed a solubility kinetic of over 43.2 µg/mL. For `CCN(CC)CCN(C(=O)/C=C/c1cccs1)c1nc2ccc(Cl)cc2s1.Cl`, the solubility kinetic was under 0.3 µg/mL. For `CCCN1CCN(S(=O)(=O)c2ccc3c(c2)CCC(=O)N3)CC1`, the solubility kinetic was over 50.6 µg/mL. `COc1ccccc1C1CCN(C(=O)c2ccc(Cl)cc2)CC1` showed a solubility kinetic of 17 µg/mL (≈ 51.5 µM). Compound `COCC(C)n1c(C)cc(C(=O)COC(=O)c2cnc(Cl)c(Cl)c2)c1C` (stereo not given) has a solubility kinetic of 34 µg/mL (≈ 85.2 µM). `Cc1cc(C)c(SCCc2ccncc2)c(C)c1` showed a solubility kinetic of 3.1 µg/mL (≈ 12 µM). In the case of `CCN1CCCC1CNC(=O)C(=O)NCc1ccccc1` (stereo not given), the solubility kinetic is reported as over 43.4 µg/mL. Work on `COc1ccc(C(=O)Nc2cccnc2Cl)cc1OC` yielded a solubility kinetic of 42.5 µg/mL (≈ 145 µM). In the case of `NC(=O)COc1ccccc1C(=O)NC12CC3CC(CC(C3)C1)C2`, the solubility kinetic is reported as 14.2 µg/mL (≈ 43.2 µM). Compound `CCC1CCCCN1C(=O)c1ccc([N+](=O)[O-])o1` (stereo not given) has a solubility kinetic of over 37.8 µg/mL. Compound `CC1(C)CN2C(=O)c3ccccc3C2(C)S1` (stereo not given) has a solubility kinetic of over 35 µg/mL. With `CS(=O)(=O)Nc1ccccc1C(=O)NCCSc1ccccc1` the solubility kinetic was 51 µg/mL (≈ 146 µM). `CCCOc1ccccc1Cn1c(=O)oc2ccccc21` showed a solubility kinetic of 3.9 µg/mL (≈ 13.8 µM). In the case of `CCOCCCNC(=O)c1ccc(C2SCC(=O)N2Cc2ccccc2)cc1` (stereo not given), the solubility kinetic is reported as over 59.8 µg/mL. Compound `Cc1ccc(C)c2nc(Cl)c(C#N)cc12` has a solubility kinetic of under 0.2 µg/mL. Compound `CCCC1=[N+](CC(C)=O)CCn2c(C)ccc21.[Br-]` has a solubility kinetic of over 47 µg/mL. With `Cc1ccc(C(=O)N2CCOCC2)c(F)c1F` the solubility kinetic was 33.9 µg/mL (≈ 141 µM). Work on `Cc1ccc2nc(-c3ccc(NC(=O)COCC(=O)O)cc3)sc2c1` yielded a solubility kinetic of over 53.5 µg/mL.
